Results as given in patent publication US20250099596A1, “TETRAHYDRONAPHTHALENE COMPOUND, AND PREPARATION METHOD THEREFOR AND USE THEREOF IN MEDICINE” (Jiangsu Hengrui Pharmaceuticals Co., Ltd., priority 2021, published 2025).

Experiments:
MCF7 cells = assay: Inhibitory effects on MCF7 cell proliferation (CellTiter-Glo); type: cell-based; conditions: Homo sapiens, 144 h, 6 days incubation, read-out: IC50 (nM), inhibition of MCF7 cell proliferation
Summary of the method: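 MCF7 cells seeded at 3,000 cells/well in MEM with 2% FBS, then treated next day with 9 final concentrations (4-fold dilutions from 1000 nM) for 6 days at 37° C; blank control 0.5% DMSO. Viability read by CellTiter-Glo luminescence; IC50 fitted from concentration–signal data.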

MCF7/ERα Y537S cells = assay: Inhibitory activity on proliferation of ERα mutant-expressing MCF7 cells; type: cell-based; conditions: Homo sapiens, 144 h, 6 days incubation, CellTiter-Glo, read-out: IC50 (nM), inhibition of proliferation of ERα mutant-expressing MCF7 cells
Summary of the method: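 MCF7 cells stably expressing ERα Y537S (lentiviral) were seeded in 2% FBS medium and exposed for 6 days at 37 °C to 9 concentrations (4-fold dilution from 1000 nM, 0.5% DMSO control). Viability read by CellTiter-Glo luminescence; IC50 calculated from concentration–signal data.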

[1] = test system: human breast cancer cell MCF-7 (Y537S) xenograft tumors; assay: Pharmacodynamic test: MCF-7 (Y537S) xenograft tumors in BEIGE SCID mice; type: in vivo; conditions: for Number of remaining animals/group / Mean tumor volume (mm^3) D 0 / Mean tumor volume (mm^3) D 28 / TGI (%) D 28: i.g., qd/28 d; for Mean tumor volume (mm^3) D 0: D 0 (day of grouping)
Text: To evaluate the inhibitory effect of the compound of the present disclosure on the growth of human breast cancer cell MCF-7 (Y537S) xenograft tumors in BEIGE SCID mice.
A 2% Tween 80+98% PEG-400 solution was used.
Animals: BEIGE SCID female mice, purchased from Beijing Vital River Laboratory Animal Technology Co., Ltd. (certificate No. SCXK (Beijing) 2016-0006), weighing about 19 g on purchase.
BEIGE SCID mice were acclimatized and then grouped as follows:
MCF-7 (Y537S) cells in the logarithmic growth phase were subcutaneously inoculated at 1.0×10^7/mouse/200 μL (containing 100 μL of matrigel) into the right flank of female BEIGE SCID mice. After 18 days, when the tumor volume of tumor-bearing mice reached about 170 mm^3, the mice were randomly divided into 4 groups of 8 by tumor volume and body weight: a vehicle control group, an Example 26-1 5 mpk group, an Example 26-1 15 mpk group, and an Example 26-1 45 mpk group. The day of grouping was set as DO, and intragastric administration was started and performed once a day for 28 days. The 28th day after administration was set as D28 (Table 7). For the tumor-bearing mice, the tumor volume was measured with a vernier caliper and the body weight was measured with a balance twice a week, and data were recorded.
All data were plotted and statistically analyzed using Excel and GraphPad Prism 8 software.
The tumor volume (V) was calculated as follows: V=1/2×a×b^2, where a and b represent length and width, respectively.
The relative tumor proliferation rate T/C (%)=(T−T0)/(C−C0)×100(%), where T and C are tumor volumes of a treatment group and the control group respectively at the end of the experiment; T0 and C0 are tumor volumes of a treatment group and the control group respectively at the beginning of the experiment.
Tumor growth inhibition ? TGI (%)=1−T/C (%), and if TGI (%) exceeds 100%, it will not be shown as a specific value but >100%.

IC50 (MCF7 cells): 0.59 nM | IC50 (MCF7/ERα Y537S cells): 1.67 nM | Number of remaining animals/group ([1]; 5 mpk): 8/8 | Number of remaining animals/group ([1]; 15 mpk): 8/8 | Number of remaining animals/group ([1]; 45 mpk): 8/8
Compound: CC(C)C[C@H]1CCc2cc(O)ccc2[C@H]1c1ccc(N2CCC(CN3CCN(c4ccc5c(c4)CN([C@H]4CCC(=O)NC4=O)C5=O)CC3)CC2)cc1 [Example 26-1, (S)-3-(5-(4-((1-(4-((1R,2R)-6-Hydroxy-2-isobutyl-1,2,3,4-tetrahydronaphthalen-1-yl)phenyl)piperidin-4-yl)methyl)piperazin-1-yl)-1-oxoisoindolin-2-yl)piperidine-2,6-dione]
Effect on the body weight of BEIGE SCID mice ([1]; i.g., 5, 15, 45 mpk, qd for 28 days): did not affect mouse body weight | Mean tumor volume (mm^3) D 0 ([1]; 5 mpk): 170.2 mm^3 | Mean tumor volume (mm^3) D 28 ([1]; 5 mpk): 305.0 mm^3 | TGI (%) D 28 ([1]; 5 mpk): 72% | Mean tumor volume (mm^3) D 0 ([1]; 15 mpk): 168.2 mm^3 | Mean tumor volume (mm^3) D 28 ([1]; 15 mpk): 219.7 mm^3 | TGI (%) D 28 ([1]; 15 mpk): 89% | Mean tumor volume (mm^3) D 0 ([1]; 45 mpk): 168.6 mm^3 | Mean tumor volume (mm^3) D 28 ([1]; 45 mpk): 192.0 mm^3 | TGI (%) D 28 ([1]; 45 mpk): 95%
